System: peroxide level in the skin
Assay: TBA test of peroxide level in skin of adult mice after topical application
Type: in vivo
Settings: 0.1% dissolved in Oil of Olay, similar experiments
Excerpt: Samples of lotions and appropriate controls were applied to mice or rat skin for a fixed period. The application was done once a day. Experiments were terminated by killing the animal, peeling the skin and freezing it in liquid nitrogen. Samples of the frozen skin were homogenized in 0.2M phosphate buffer, pH 6.5. After centrifugation, the supernatant was collected and analyzed for the peroxide value using the TBA (thiobarbituric acid) test as described by Sinnhuber et al, Food Res. 23: 620 (1958). In the experiments which follow, newborn (hairless) rats were used. It is generally considered that the penetration through the skin of newborn rats is better than in adult rats, since at this stage they have not yet developed any fur.
In these experiments adult mice (2 months old) were treated as described in Example 2. The grown mice were shaved before applying the lotions to the skin.
In this experiment the antioxidant was dissolved in Oil of Olay. Mice were sacrificed after 21 days.

| SMILES | reduction of the level of peroxides |
| --- | --- |
| COc1ccc(O)c(C(C)(C)C)c1 [BHA] | no reduction of the level of peroxides was observed |
| Cc1cc(C(C)(C)C)c(O)c(C(C)(C)C)c1 [BHT] | no reduction of the level of peroxides was observed |
| Cc1c(C)c2c(c(C)c1O)CCC(C)(CCCC(C)CCCC(C)CCCC(C)C)O2 (stereo not drawn) [alpha tocopherol] | no reduction of the level of peroxides was observed |

Source: patent publication US4986985A, “Method of treating skin virus infections” (Bar Ilan University, priority 1987, dated 1991)
